# According to patent US20230119239A1, “OROMUCOSAL FILM COMPOSITIONS” (ReForm Therapeutics Ltd., priority 2021, published 2023):
# Experiment: Ex vivo permeation of liraglutide solution through porcine sublingual mucosa, Franz diffusion cell
# Assay type: in vitro ADME
# Conditions: liraglutide 3 mg/mL + Transcutol® HP (10% solution) compared with liraglutide solution alone; 120 minutes; receptor phosphate buffer pH 8.5; FIG. 4
# Method: The solution of liraglutide, and solution of liraglutide and permeation enhancer was tested. […] Samples were taken at 0 and 120 minutes to determinate the presence of liraglutide in the receptor chamber. The concentration level of liraglutide was determined using HPLC/MS method.
smiles,measurement,value
CCCCCCCCCCCCCCCC(=O)N[C@@H](CCC(=O)NCCCC[C@H](NC(=O)[C@H](C)NC(=O)[C@H](C)NC(=O)[C@H](CCC(N)=O)NC(=O)CNC(=O)[C@H](CCC(=O)O)NC(=O)[C@H](CC(C)C)NC(=O)[C@H](Cc1ccc(O)cc1)NC(=O)[C@H](CO)NC(=O)[C@H](CO)NC(=O)[C@@H](NC(=O)[C@H](CC(=O)O)NC(=O)[C@H](CO)NC(=O)[C@@H](NC(=O)[C@H](Cc1ccccc1)NC(=O)[C@@H](NC(=O)CNC(=O)[C@H](CCC(=O)O)NC(=O)[C@H](C)NC(=O)[C@@H](N)Cc1cnc[nH]1)[C@@H](C)O)[C@@H](C)O)C(C)C)C(=O)N[C@@H](CCC(=O)O)C(=O)N[C@@H](Cc1ccccc1)C(=O)N[C@H](C(=O)N[C@@H](C)C(=O)N[C@@H](Cc1c[nH]c2ccccc12)C(=O)N[C@@H](CC(C)C)C(=O)N[C@H](C(=O)N[C@@H](CCCNC(=N)N)C(=O)NCC(=O)N[C@@H](CCCNC(=N)N)C(=O)NCC(=O)O)C(C)C)[C@@H](C)CC)C(=O)O [liraglutide],permeation of liraglutide through sublingual mucosa ex vivo (in words),significantly increased permeation
